Measured values reported in patent US20100137136A1, “HERBICIDE/SAFENER COMBINATION” (BAYER CROPSCIENCE AG, priority 2008, published 2010).

Legend:
Type in all cases: in vivo
[1] = tested on: Corn (Aventura); test: Post-emergence herbicidal effect and safener effect, corn; details: for % Reduction: reduction of effect by safener
Experimental: (§1) Seeds or rhizome pieces of mono- and dicotyledonous harmful plants and of crop plants are planted in peat pots in sandy loam, covered with earth and grown in a greenhouse under good growth conditions. Alternatively to this, harmful plants occurring in the paddy rice cultivation are cultivated in pots in which water stands up to 2 cm above the soil surface. 10 to 20 days after sowing, the test plants are treated in the one to three-leaf stage. The herbicide/safener active ingredient combinations according to the invention, formulated as water-soluble powders or suspensions, and, in parallel experiments, the correspondingly formulated individual active ingredients are sprayed onto the green plant parts in various dosages using an application rate of 300 l of water/ha (converted) and, after the test plants have remained in the greenhouse under optimum growth conditions for 2-3 weeks, the effect of the preparations is scored visually in comparison with untreated controls. In the case of rice or in the case of harmful plants which occur in the rice cultivation, the active ingredients are also placed directly into the irrigation water (application analogous to the so-called granules application) or sprayed onto plants and into the irrigation water.

[2] = tested on: Wheat (Triso); test: Pre-emergence herbicidal effect and safener effect, wheat; details: for % Reduction: reduction of effect by safener
Excerpt: (§2) Seeds or rhizome pieces of mono- and dicotyledonous weed plants and crop plants were planted in peat pots in sandy loam and covered with earth. The herbicide/safener active ingredient combinations according to the invention, formulated as water-soluble powders or suspensions, and, in parallel experiments, the correspondingly formulated individual active ingredients were then applied to the surface of the covering earth at an application rate of 600 to 800 l of water/ha (converted) in a variety of dosages.

[3] = tested on: Barley (Adonis); test: Post-emergence herbicidal effect and safener effect, barley; details: herbicide 20 g a.i./ha, no safener, scored visually vs untreated controls
Experimental: as §1

[4] = tested on: Rice (Ballila); test: Post-emergence herbicidal effect and safener effect, rice; details: for % effect (with safener) / % Reduction: herbicide I-2 80 g a.i./ha + safener 200 g a.i./ha; for % Reduction: reduction of effect by safener
Experimental: as §1

[5] = tested on: Corn (Aventura); test: Pre-emergence herbicidal effect and safener effect, corn; details: for % effect (with safener) / % Reduction: herbicide I-2 80 g a.i./ha + safener 200 g a.i./ha; for % Reduction: reduction of effect by safener
Excerpt: as §2

[6] = tested on: Wheat (Triso); test: Post-emergence herbicidal effect and safener effect, wheat; details: for % effect (with safener) / % Reduction: herbicide I-2 20 g a.i./ha + safener 50 g a.i./ha; for % Reduction: reduction of effect by safener
Experimental: as §1

[7] = herbicide I-2 20 g a.i./ha + safener 50 g a.i./ha
[8] = herbicide I-2 80 g a.i./ha alone
[9] = herbicide I-2 20 g a.i./ha alone
[10] = herbicide I-2 80 g a.i./ha + safener 200 g a.i./ha

SMILES: CC1(C)OC(c2ccco2)CN1C(=O)C(Cl)Cl (racemic) [Compound S3-10, (RS)-3-dichloroacetyl-5-(2-furyl)-2,2-dimethyloxazolidine]
- % effect (with safener) [1, 7]: 20%
- % Reduction [1, 7]: 50%
- % effect (with safener) [2, 7]: 10%
- % Reduction [2, 7]: 67%

SMILES: COC(=O)c1nc(C2CC2)cc(N)c1Cl [Compound I-2, methyl 4-amino-3-chloro-6-cyclopropyl-2-pyridinecarboxylate]
- % effect (without safener) [3]: 20%
- % effect (without safener) [4, 8]: 30%
- % effect (without safener) [1, 9]: 40%
- % effect (without safener) [1, 8]: 40%
- % effect (without safener) [5, 8]: 35%
- % effect (without safener) [6, 9]: 20%
- % effect (without safener) [2, 9]: 30%
- % effect (without safener) [2, 8]: 30%

SMILES: CCCCCC(C)OC(=O)COc1ccc(Cl)c2cccnc12 (stereo not drawn) [Compound S2-1, 1-methylhexyl(5-chloro-8-quinolinoxy)acetate]
- % effect (with safener) [4]: 10%
- % Reduction [4]: 67%
- % effect (with safener) [1, 7]: 20%
- % Reduction [1, 7]: 50%
- % effect (with safener) [2, 10]: 20%
- % Reduction [2, 10]: 33%

SMILES: CC1COc2ccccc2N1C(=O)C(Cl)Cl (stereo not drawn) [Compound S3-4, 4-dichloroacetyl-3,4-dihydro-3-methyl-2H-1,4-benzoxazine]
- % effect (with safener) [1, 10]: 10%
- % Reduction [1, 10]: 75%

SMILES: FC(F)(F)C(=NOCC1OCCO1)c1ccc(Cl)cc1 [Compound S11-2, 1-(4-chlorophenyl)-2,2,2-trifluoro-1-ethanone O-(1,3-dioxolan-2-ylmethyl)oxim]
- % effect (with safener) [2, 7]: 20%
- % Reduction [2, 7]: 33%

SMILES: O=C(O)c1nc(C(Cl)(Cl)Cl)n(-c2ccc(Cl)cc2Cl)n1 [Fenchlorazole]
- % effect (with safener) [2, 7]: 10%
- % Reduction [2, 7]: 67%

SMILES: CCOC(=O)C1=NOC(c2ccccc2)(c2ccccc2)C1 [Isoxadifen-ethyl, ethyl 5,5-diphenyl-2-isoxazoline-carboxylate]
- % effect (with safener) [4]: 20%
- % Reduction [4]: 33%
- % effect (with safener) [1, 10]: 20%
- % Reduction [1, 10]: 50%
- % effect (with safener) [5]: 25%
- % Reduction [5]: 29%
- % effect (with safener) [6]: 0%
- % Reduction [6]: 100%
- % effect (with safener) [2, 7]: 10%
- % Reduction [2, 7]: 67%

SMILES: CCOC(=O)C1=NN(c2ccc(Cl)cc2Cl)C(C)(C(=O)OCC)C1 (stereo not drawn) [Mefenpyr-diethyl, ethyl 1-(2,4-dichlorophenyl)-5-(ethoxycarbonyl)-5-methyl-2-pyrazoline-3-carboxylate]
- % effect (with safener) [1, 7]: 20%
- % Reduction [1, 7]: 50%
- % effect (with safener) [5]: 20%
- % Reduction [5]: 43%
- % effect (with safener) [6]: 0%
- % Reduction [6]: 100%
- % effect (with safener) [2, 7]: 20%
- % Reduction [2, 7]: 33%
